This passage reports IC50 results from patent US10029993B2, “Disubstituted 1, 2, 4-triazine compound” (MITSUBISHI TANABE PHARMA CORPORATION, priority 2014, dated 2018).

Sequence of human CYP11B2 (P19099 25-503): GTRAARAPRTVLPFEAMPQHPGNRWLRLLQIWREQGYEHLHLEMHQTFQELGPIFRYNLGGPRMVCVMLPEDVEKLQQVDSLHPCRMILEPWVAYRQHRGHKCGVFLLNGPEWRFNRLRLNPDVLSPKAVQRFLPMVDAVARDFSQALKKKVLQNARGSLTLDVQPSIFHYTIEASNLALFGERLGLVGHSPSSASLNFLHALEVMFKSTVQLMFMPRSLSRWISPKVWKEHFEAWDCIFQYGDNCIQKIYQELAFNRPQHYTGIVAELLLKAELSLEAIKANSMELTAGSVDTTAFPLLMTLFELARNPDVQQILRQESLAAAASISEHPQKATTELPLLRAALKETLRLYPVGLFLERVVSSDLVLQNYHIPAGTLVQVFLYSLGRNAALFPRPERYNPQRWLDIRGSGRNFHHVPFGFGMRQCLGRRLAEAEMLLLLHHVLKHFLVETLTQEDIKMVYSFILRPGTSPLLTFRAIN

The test has as its target human CYP11B2 (Homo sapiens (Human), UniProt P19099). Description: Inhibitory effect on hCYP11B2 (aldosterone production by mitochondrial fraction of V79 cells stably expressing human CYP11B2, HTRF). It is filed as biochemical. The settings on record: 0.5 μmol/L deoxycorticosterone, 150 μmol/L NADPH, 1.5-2 hours at room temperature. As for the experimental part:
Experimental Example 1 (Inhibitory Effect on hCYP11B2)
The pcDNA3.1-human CYP11B2 plasmid was transfected into a Chinese hamster lung fibroblast V79 cell line to produce a cell line stably expressing human CYP11B2 gene.
The cells were cultured and grown in the Dulbecco's modified Eagle's/Ham's medium supplemented with 10% fetal bovine serum and 1% G418 disulfate solution under the environment of 37° C., 95% air, and 5% CO2, and the grown cells were harvested.
Then, the cells were fractionated to obtain mitochondria by reference to a method described in Chabre et al. JCE 86 M 85 (11) 4060-68, 2000. In particular, the cells suspended in a 5 mmol/L Tris-HCl buffer (pH 7.4) containing 250 mmol/L sucrose were homogenized in a Teflon (Registered Trademark) Potter Elvehjem homogenizer, and then the suspension was centrifuged (800×g, 15 min.). The supernatant was separated and again centrifuged (10000×g, 15 min.) to obtain a pellet (mitochondrial fraction).
The mitochondrial fraction diluted with a buffer containing 10 mmol/L KH2PO4, 10 mmol/L Tris, 20 mmol/L KCl, 25 mmol/L sucrose, 5 mmol/L MgCl2, and 0.05% bovine serum albumin was dispensed to a 96-well plate. 0.5 μmol/L Deoxycorticosterone, 150 μmol/L NADPH and a compound of each concentration were added to each well, and incubated for 1.5-2 hours at room temperature to produce aldosterone. An amount of the produced aldosterone in the incubated solution was determined by using HTRF (Homogeneous Time Resolved Fluorescence) method.
IC 50 (nmol/L) was calculated by analyzing the aldosterone production inhibition rate (%) of each concentration of compounds by non-linear regression to a logistic curve.
Background: TR-FRET usually uses a lanthanide donor and a delayed reading to cut background.
Broadly, the IC50 is the concentration at which inhibition is half-maximal. Low readings indicate greater potency in that assay, high ones weaker potency in that assay. On to `CC(C)[C@@H](CO)NC(=O)CN1CCN(c2nncc(-c3ccc(C(F)(F)F)cc3)n2)CC1` [Example 16], for which inhibition was half-maximal at 16 nM (IC50). As to `C[C@H]1COCCC1NC(=O)CN1CCN(c2nncc(-c3ccc(Cl)cc3)n2)CC1` (some centres unmarked) [compound 161], 6.1 nM corresponded to half-maximal inhibition (IC50). For the compound `CNC(=O)CN1CCC(NC(=O)CN2CCN(c3nncc(-c4ccc(F)cc4)n3)CC2)CC1` [Example 44], the IC50 worked out at 17 nM. Against the preceding compound, the IC50 is about 2.8-fold higher. The value for `c1nnc(N2CCOCC2)nc1CC1CCCCC1` [Example 233, 5-cyclohexylmethyl-3-morpholino-1,2,4-triazine] was 20 nM; that for `Cc1ccccc1-c1cnnc(N2CCN(CC(=O)Nc3cccnc3)CC2)n1` [Example 86] was 0.5 nM; that for `Cc1ccc(-c2cnnc(N3CCN(CC(=O)N[C@H]4CC[C@H](S(C)(=O)=O)CC4)CC3)n2)cc1` [Example 50] was 6.3 nM. The same measure for `CN(C)C(=O)Cn1cc(NC(=O)CN2CCN(c3nncc(-c4ccc(Cl)cc4)n3)CC2)cn1` [Example 76]: 4.5 nM; for `CN1CC[C@H](NC(=O)CN2CCN(c3nncc(-c4ccc(Cl)cc4)n3)CC2)CC1=O` [Example 54]: 7.2 nM; for `CC(C)NC(=O)CN1CCN(c2nncc(-c3ccc4c(c3)CCO4)n2)CC1` [Example 219]: 3.1 nM. The value for `CN1CCO[C@@H](CNC(=O)CN2CCN(c3nncc(-c4ccc(F)cc4)n3)CC2)C1` [Example 159a, 5-(4-fluorophenyl)-3-[4-[[(4-methylmorpholyn-2-yl)methyl]carbamoylmethyl]piperazin-1-yl]-1,2,4-triazine] was 7.7 nM; that for `CC(C)NC(=O)CN1CCN(c2nncc(-c3cccc4c3COCC4)n2)CC1` [Example 218] was 9.8 nM. Regarding `Cc1ccccc1-c1cnnc(N2CC[C@@H](Oc3ccncc3)C2)n1` [Example 188], it took 6 nM to reach half-maximal inhibition (IC50). The value for `O=C(CN1CCN(c2nncc(-c3ccc(F)cc3)n2)CC1)NC1CN(C(=O)C2(O)CC2)C1` [Example 141] was 11 nM.

`CC(C)CC(=O)NN1CCN(c2nncc(-c3ccc(Cl)cc3)n2)CC1` [Example 251, 5-(4-chlorophenyl)-3-[4-[(3-methylbutanoyl)amino]piperazin-1-yl]-1,2,4-triazine] returned an IC50 of 7.5 nM.

On to `Cc1ccccc1-c1cnnc(N2CCN(c3ccc(F)cc3)CC2)n1` [Example 170, 3-[4-(4-fluorophenyl)piperazin-1-yl]-5-(o-tolyl)-1,2,4-triazine], for which the IC50 was determined as 23 nM. The same measure for `CN(C)[C@H]1CC[C@H](NC(=O)CN2CCN(c3nncc(-c4cc(F)ccc4F)n3)CC2)CC1` [Example 83]: 7.6 nM. Take `Cc1ccccc1-c1cnnc(N(Cc2ccccn2)S(C)(=O)=O)n1` [Example 236, 3-[N-(methylsulfonyl)-N-(2-pyridylmethyl)amino]-5-(o-tolyl)-1,2,4-triazine]: the IC50 was found to be 23 nM. As to `c1ccc(COc2cnnc(N3CCOCC3)n2)cc1` [Example 256, 5-benzyloxy-3-morpholino-1,2,4-triazine], the IC50 stood at 26 nM. The compound `CN(C)[C@H]1CC[C@H](NC(=O)CN2CCN(c3nncc(-c4ccc(Cl)cc4)n3)CC2)CC1` [Example 18] yielded an IC50 of 7.9 nM. `CC(C)NC(=O)NC1CCN(c2nncc(-c3ccc(F)cc3)n2)CC1` [Example 180] yielded an IC50 of 6.1 nM. `O=C(CN1CCN(c2nncc(-c3ccc(F)cc3)n2)CC1)NC1CCN(CC(=O)N2CCOCC2)CC1` [Example 38]: inhibition was half-maximal at 14 nM (IC50). With `Cc1ncc(CN2CCC(NC(=O)CN3CCN(c4nncc(-c5ccc(F)cc5)n4)CC3)CC2)[nH]1` [Example 147], half-maximal inhibition (IC50) was put at 18 nM. The IC50 values of the last two compounds are within 1.5-fold of each other. The value for `O=C1CN([C@H]2CC[C@H](NC(=O)CN3CCN(c4nncc(-c5ccc(F)cc5)n4)CC3)CC2)CCN1` [Example 26] was 8.5 nM.
